Measured values reported in patent publication US20110130346A1, “PEPTIDE CONJUGATES FOR DELVERY OF BIOLOGICALLY ACTIVE COMPOUNDS” (ISIS INNOVATION LIMITED, priority 2008, published 2011).

How the values were obtained:
[1] = system: H2K mdx cells; assay: WST-1 cell viability assay in H2K mdx cells; type: cell-based, mouse; conditions: 2.5 μM to 25 μM, 12 hours
Method: The possible toxicity of the PNA-peptide conjugates in H2K mdx cells was examined using a WST-1 assay, which measures the metabolic activity of viable cells. Cells were grown in 96-well microplates overnight and treated with unmodified PNA as a control or PNA-peptide conjugates for 12 hours, and then incubated with WST-1 for approximately 4 hours. During this incubation period, viable cells convert WST-1 to a water-soluble formazan dye which is then quantified using an ELISA plate reader.

[2] = system: exon and intron 23 of the dystrophin gene; assay: Example 2: intramuscular injection, nested RT-PCR of exon skipping; type: in vivo, mdx mice; conditions: 5 ug intramuscular, 4 weeks after injection (peak)
Method: Total RNA was extracted from tested muscle tissues with Trizol (Invitrogen, UK) and 200 ng of RNA template was used for 20 μl RT-PCR with OneStep RT-PCR kit (Qiagen, UK). The primer sequences for the initial RT-PCR were Exon20Fo 5′-[…]-3′ and Ex26Ro 5′-[…]-3′ for amplification of messenger RNA from exons 20 to 26. The cycle conditions were 95° C. for 30 seconds, 55° C. for 1 minute and 72° C. for 2 minutes for 25 cycles. RT-PCR product (1 μl) was then used as the template for secondary PCR performed in […] with 0.5 U Taq DNA polymerase (Invitrogen, UK). The primer sequences for the second round were Ex20Fi 5′-[…]-3′ and Ex24Ri 5′-[…]-3. The cycle conditions were 95° C. for 1 minute, 57° C. for 1 minute, and 72° C. for 2 min for 25 cycles. The products were examined by electrophoresis on a 2% agarose gel.
(§1) For intramuscular studies the TA muscle of each experimental mdx mouse was injected with a […] dose of PNA and PNA-peptide conjugates with saline at a final concentration of 125 μg/ml. For systemic intravenous injections, Various amount of PNA or PNA-peptide conjugates in 80 μl saline buffer were injected into tail vein of mdx mice at the final dose of 25 mg/kg, 50 mg/kg and 100 mg/kg, respectively. The animals were killed at various time points after injection by CO2 inhalation and tissues were removed and snap-frozen in liquid nitrogen-cooled isopentane and stored at −80° C.

[3] = system: exon and intron 23 of the dystrophin gene; assay: Example 2: systemic intravenous injection, Western blot of dystrophin; type: in vivo, mdx mice; conditions: intravenous 25, 50 and 100 mg/kg
Text: (§2) To develop AO splice correction therapy for DMD it is essential to establish effective systemic dystrophin correction since DMD is a systemic disease affecting all skeletal muscles, including the diaphragm, and cardiac muscle. Other AO chemistries, including 2′OMePS and PMO chemistries, have been reported to yield variable dystrophin splice correction following intravenous systemic delivery in mdx mice, with high systemic doses being required to detect appreciable efficacy. Here we wished to evaluate the potential of neutral PNA AOs for systemic splice correction in body-wide muscles, and initially evaluated a dose-response using three intravenous single PNA doses of 25, 50 and 100 mg/kg administered to 6 week old mdx mice via tail vein injections. […]
The collected sections were placed in a 1.5 ml polypropylene eppendorf tube (Anachem, UK) on dry ice. […] The supernatant was collected and the protein concentration was quantified by Bradford assay (Sigma, UK). […] The bound primary antibody was detected by horseradish peroxidise-conjugated rabbit anti-mouse IgGs and the ECL Western Blotting Analysis system (Amersham Pharmacia Biosciences, UK). The intensity of the bands obtained from treated mdx muscles was measured by Image J software; the quantification is based on band intensity and area, and is compared with that from normal muscles of C57BL6 mice.

[4] = system: exon and intron 23 of the dystrophin gene; assay: Example 2: systemic intravenous tail vein injection, dystrophin immunostaining of muscles; type: in vivo, mdx mice
Text: as §2
Sections of 8 μm were cut from at least two-thirds of the muscle length of TA, quadriceps, gastrocnemius, biceps, abdominal wall and diaphragm muscles and cardiac muscle at 100 μm intervals. […] The maximum number of dystrophin-positive fibres in one section was counted using the Zeiss AxioVision fluorescence microscope. […] Polyclonal antibodies were detected by goat-anti-rabbit IgGs Alexa Fluro 594 (Molecular Probe, UK). Polyclonal antibodies were detected by goat-anti-rabbit IgGs Alexa 594 (Molecular Probe, UK).

[5] = system: exon and intron 23 of the dystrophin gene; assay: Example 2: intramuscular injection into TA muscle, dystrophin-positive fibres by immunohistochemistry; type: in vivo, mdx mice
Text: Here we aim to evaluate the potential of PNA AOs as splice correcting therapeutic agents for DMD, by studying their activity under a range of conditions in mdx mice carrying a nonsense mutation in exon 23 of the dystrophin gene. PNAs and PNA-pepide conjugates were studied following intramuscular delivery into adult (6-8 week old) mdx tibialis anterior (TA) muscles or via systemic intravenous tail vein delivery in mdx mice unless otherwise stated.
as §1
Sections of 8 μm were cut from at least two-thirds of the muscle length of TA, quadriceps, gastrocnemius, biceps, abdominal wall and diaphragm muscles and cardiac muscle at 100 μm intervals. The sections were then examined for dystrophin expression with a polyclonal antibody 2166 against the dystrophin carboxyl-terminal region. The maximum number of dystrophin-positive fibres in one section was counted using the Zeiss AxioVision fluorescence microscope. The intervening muscle sections were collected either for RT-PCR analysis and Western blot or as serial sections for immunohistochemistry. Polyclonal antibodies were detected by goat-anti-rabbit IgGs Alexa Fluro 594 (Molecular Probe, UK). […]

5′-ggccaaaccteggcttacct-3′ [PNA]
Toxicity or inhibition of cell proliferation (WST-1) [1]: not observed
targeted dystrophin transcripts showing splice correction (RT-PCR) [2]: about 50%
dystrophin protein (Western blot) [3]: Under detectable level
dose response of dystrophin positive fibres ([4]; intravenous 25, 50 and 100 mg/kg): No evidence of a dose response
number of dystrophin positive fibres in peripheral muscles and heart ([4]; single intravenous 25, 50 and 100 mg/kg, 6 week old mdx mice, three weeks, all muscle groups except diaphragm and heart): low nevertheless showing a significant increase
number of dystrophin-positive fibres ([5]; 12-month old mdx mice, 5 ug intramuscular into TA, two weeks): 388±24
persistence of splice correction effect ([5]; two month old mdx mice, 5 ug intramuscular): greater than 20 weeks
number of dystrophin-positive fibres ([5]; two month old mdx mice, 5 ug intramuscular, 8 week time point (peak)): greater than 650
